The structures appear in SMILES notation. Entries after “also recorded” stand apart in the source; their conditions may differ.

The record followed here is patent publication US20260130918A1, “TRANSCRIPTION FACTOR PFAP2-O5 INHIBITOR FOR PLASMODIUM FALCIPARUM, PHARMACEUTICAL COMPOSITION, AND DRUG FOR TREATING MALARIA RESISTANT TO ARTEMISININ AND ANALOG THEREOF” (priority 2023, published 2026).

Series [1] is described as follows: Liver microsomal metabolism, human. The series is classed as in vitro ADME. Details: half-life / CLint scaled: dose or concentration left out as unconfirmed. Here is the method: (§1) In the microsomal metabolism assay, the inhibitor was incubated with liver microsomes from different species; the reaction was terminated at different time points; the remaining amount of the inhibitor in the samples at each time point was determined using LC-MS/MS. The percentage of parent drug remaining was calculated, and the hepatic intrinsic clearance CLinit(liver) was finally obtained. Testosterone was used as a control in this study to verify the reliability of the experimental system. The detailed procedures were as follows:
(§2) The incubation system consisted of 0.1 M Tris-HCl buffer (pH 7.4), 1 mM MgCl2, 1 mM NADPH (Nicotinamide Adenine Dinucleotide Phosphate), and 0.5 mg/mL microsomes, and the final reaction volume was 200 μL. […] inhibitor and testosterone were pre-incubated with liver microsomes from different species in a 37° C. water bath for 5 minutes. 100 μL of NADPH was added to initiate the reaction. 400 μL of stop solution was added to terminate the reaction at time points of 0 minutes, 5 minutes, 15 minutes, 30 minutes, 45 minutes, and 60 minutes. 40 μL of internal standard was added, and the mixture was vortexed for 5 minutes and centrifuged at […] and 4° C. for 5 minutes. 100 μL of the supernatant was taken and diluted with 100 μL of water for injection and analysis. The retention time of the compound and the internal standard, chromatogram acquisition, and chromatogram integration were processed by Analyst 1.6.3 software. The compound was subjected to linear regression with a weighting coefficient of 1/X^2 to calculate the concentration at each time point. The natural logarithm of the percentage remaining at each time point was linearly regressed against the incubation time to calculate the in vitro elimination rate constant k. The half-life (T1/2) and hepatic intrinsic clearance CLint(liver) of the test article were calculated according to the following formula.
(§3) hepatic microsomal clearance CLint(mic)=0.693/half-life/mg microsomal protein per mL; hepatic intrinsic clearance CLint(liver)=hepatic microsomal clearance×mg microsomal protein/gram of liver×liver weight-to-body weight ratio. The liver weight-to-body weight ratios of mice, rats, and humans were […], respectively; the average value of mg microsomal protein/gram of liver in different species was 45.

The subject of series [2] is artemisinin-resistant Plasmodium falciparum strains. Briefly: Ring-stage survival assay against resistant Plasmodium falciparum strains. The series is classed as cell-based. The conditions noted are these: in combination with DHA, 6 hours exposure, then 66 hours culture. Here is the method: This experiment aimed to evaluate the killing effect of the triazoloquinoline derivative as a combination drug against drug-resistant Plasmodium falciparum strains using the gold-standard drug resistance assay. The detailed implementation procedures were as follows: • 1. Culture of Plasmodium falciparum when the parasitemia was greater than 4% and most parasites were at the ring (R) stage, the culture was synchronized with Sorbitol for 10 minutes and vortexed for 5 seconds; • 2. Synchronization with sorbitol was repeated 30-48 hours later (depending on the parasite stage); • 3. Smear test under microscope after approximately 30 hours of culture: if the proportion of the mature schizont (S) stage (10-12 merozoites) was greater than 0.5%, the operation proceeded to procedure 4; if the proportion of the mature S stage (10-12 merozoites) was less than 0.5%, procedure 2 was repeated; • 4. […] After the culture was mixed well, approximately 200 μL of the culture was pipetted and centrifuged for smear test under microscope (this could be done approximately 10 minutes in advance); the parasitemia was quickly calculated (must be greater than 0.5%); • 7. […] After 66 hours of the culture, smear test under microscope was performed to calculate the parasitemia, and the survival rate was calculated.

A short description of series [3]: Liver microsomal metabolism, mouse. Format: in vitro ADME. Set-up: half-life / CLint scaled: dose or concentration left out as unconfirmed. On the procedure: as §1, §2, §3
Series [4] concerns PfAP2-O5 target genes (invasion genes). The experiment in a line: RNA-seq analysis of invasion gene expression after inhibitor treatment. The settings on record: wild-type strain treated with 1 M triazoloquinoline derivative for one life cycle. The series is classed as cell-based, Plasmodium falciparum. On the procedure:
Wild-type and pfap2-o5 conditional knockdown Plasmodium falciparum strains were treated with the triazoloquinoline derivative represented by formula (I), respectively. After strict synchronization of the Plasmodium falciparum strains, […] triazoloquinoline derivative was added one life cycle in advance. After one life cycle, the ring (10-15 hours), trophozoite (28-32 hours), and schizont (40-44 hours) stage cultures of the wild-type and pfap2-o5 conditional knockdown Plasmodium falciparum strains treated with the triazoloquinoline derivative were collected. Total RNA was purified using the Direct-zol RNA kit, strand-specific RNA sequencing libraries were then prepared using KAPA mRNA beads, and the RNA was fragmented. The libraries were sequenced on the Illumina HiSeq X Ten system, and the differential gene expression between the two Plasmodium falciparum strains after inhibitor treatment was analyzed.

For the next series, the system named is 293T cells. The experiment in a line: 3-day CCK-8 cytotoxicity assay, 293T. Format: cell-based, human. The settings on record: 72 hours. Here is the method:
(§4) Mammalian 293T and HepG2 cells were cultured and passaged, trypsinized, and resuspended in DMEM. The cells were counted using a hemocytometer and diluted to 10^5 cells/mL. The cell suspension was evenly added to a 96-well plate, with 100 μL per well. After the cells were subjected to attachment culture in a 37° C. incubator (5% CO2) for 24 hours, the inhibitors of the corresponding concentrations were added. Gradient dilution (11 concentration gradients) was performed at a 1/2 ratio according to the doubling gradient dilution. Complete culture medium was used as a negative control, and DMEM was used as a background control. After the culture in a 37° C. incubator (5% CO2) for 72 hours, 10 µL of CCK8 reagent was added to each well. The plate was incubated in a 37° C. incubator (5% CO2) for 1 hour. The absorbance at a 450 nm wavelength was read by a microplate reader, and a survival rate was calculated based on the absorbance.
(§5) [formula] • where Abtreated, Abbackground, and Abcontrol represent the absorbance values of the small molecule drug group, the DMEM control group, and the untreated control group, respectively. The inhibition rate of the drug was calculated based on the survival rate at different concentrations, and the growth inhibition curve was summarized as inhibition rate-drug concentration. The IC50 was calculated using SPSS 18.0 software.

A further series relates to HepG2 cells. The experiment in a line: 3-day CCK-8 cytotoxicity assay, HepG2. Format: cell-based, human. The conditions noted are these: HepG2, 72 hours. Here is the method: as §4, §5
Series [5] in a line: Liver microsomal metabolism, rat. Format: in vitro ADME. Details: half-life / CLint scaled: dose or concentration left out as unconfirmed. On the procedure: as §1, §2, §3
A further series concerns Plasmodium falciparum. Briefly: 3-day SYBR Green I in vitro growth inhibition of Plasmodium falciparum. The conditions noted are these: wild-type Plasmodium falciparum, 72 hours, read-out: IC50 of growth inhibition on in vitro culture of Plasmodium falciparum. The series is classed as cell-based. On the procedure:
100 μL of complete culture medium was added to a 96-well plate. 200 μL of a compound stock solution with a concentration of 200 μM was added to the first well. Gradient dilution (11 concentration gradients) was performed at a 1/2 ratio according to the doubling gradient dilution. Dihydroartemisinin (DHA) was used as a positive control, complete culture medium was used as a negative control, and red blood cells without Plasmodium falciparum or compounds were used as a background control.
100 μL of wild-type Plasmodium falciparum culture (1% parasitemia, 4% hematocrit) was accurately added to each well, so that finally, the parasitemia in each well was 0.5%, and the hematocrit was 2%. The final concentration gradients of the compound were 100 μM, 50 μM, 25 μM, 12.5 μM, 6.25 μM, 3.125 μM, 1.5625 μM, 0.78125 μM, 0.390625 μM, 0.195313 μM, and 0.097656 μM. […] After the incubation was completed, a fluorescence intensity was recorded on a microplate reader with an excitation wavelength of 485 nm and an emission wavelength of 535 nm. The inhibition rate of the small molecule inhibitor on the growth of Plasmodium falciparum was calculated based on the fluorescence intensity.
[formula] • where Fltreated, Flbackground, and Flcontrol represent the fluorescence intensity values of the candidate small molecule drug group, the red blood cell control group, and the untreated control group, respectively. […]

Take `Cc1cccc(-c2nnc3c4ccccc4nc(N4CCN(C(=O)Cc5ccccc5)CC4)n23)c1` [triazoloquinoline derivative]: the clearance classification entry in series [1] (human liver microsomes) was “moderate-clearance compound”; in series [3] (mouse liver microsomes) it was “high-clearance compound”; in series [5] (rat liver microsomes), “moderate-clearance compound”. The k in series [1] (human liver microsomes, 0.5 mg/mL, NADPH) was found to be 0.0053 min⁻¹; in series [3] (mouse liver microsomes, 0.5 mg/mL, NADPH) it was 0.0432 min⁻¹; in series [5] (rat liver microsomes, 0.5 mg/mL, NADPH), 0.0165 min⁻¹. The CLint scaled in series [1] (liver microsomes, pH 7.4, human, hepatic intrinsic clearance scaled from microsomes) was determined as 8.54 mL/min/kg; in series [3] (liver microsomes, pH 7.4, mouse, hepatic intrinsic clearance scaled from microsomes), 342 mL/min/kg; in series [5] (liver microsomes, pH 7.4, rat, hepatic intrinsic clearance scaled from microsomes), 59.4 mL/min/kg. Further, the half-life is 131 min in series [1] (pH 7.4, human liver microsomes); 16 min in series [3] (pH 7.4, mouse liver microsomes); 42 min in series [5] (pH 7.4, rat liver microsomes). The “killing effect against artemisinin-resistant strains (ring-stage survival)” value in series [2] is “more effectively kill”. In series [4], the “decrease of expression levels of merozoite surface structural protein family genes (mRNA level)” value is “more than 1.5 fold”. The “cytotoxicity to mammalian cells (293T)” value in the series on 293T cells was “low cytotoxicity; also recorded: almost no toxicity”. Also, the “cytotoxicity to mammalian cells (HepG2)” value with HepG2 cells is “low cytotoxicity; also recorded: almost no toxicity”. In addition, the half-maximal inhibitory concentration (IC50) with Plasmodium falciparum stood at 2630 nM.
